The text below walks through data of patent US20110287934A1, “HERBICIDAL COMPOSITION FOR TOLERANT OR RESISTANT RICE CROPS” (priority 2010, published 2011).

What all share (assay type): in vivo
For one data set, the system named is rice (GA-tolerant). Description: Greenhouse trial, crop plant compatibility in rice (GA-tolerant). On the procedure:
(§1) The trials were carried out under greenhouse conditions (test pots, diameter 8 cm, spray application using 300 l of water/hectare, 2 repetitions, 6 to 8 plants per pot, permanently flooded).
(§2) Scoring was by visual comparison of the treated with the untreated controls (0-100% scale, 13-15 days after the application) (see details in the respective tables).

The next data set deals with Amaranthus retroflexus. Description: Greenhouse trial, efficacy with respect to Amaranthus retroflexus. As to conditions: post-emergence, 2-3-leaf stage, scoring 13 days after treatment. On the procedure: as §1
(§3) Application was by post-emergence treatment, the species of the harmful plants and their stage of growth at the time of treatment are indicated in the individual results tables. The application rates of the herbicidally active compounds used on their own or in combinations are likewise listed in the individual results tables.
as §2
(§4) 4.2 Abbreviations Used in Tables 4 to 6 • application rate g/ai=application rate in grams of active compound per hectare • ai=active ingredient (of an active compound content of 100%) • GA=glufosinate-ammonium • GA-tolerant=rice which is tolerant to GA (GMO: LL-rice) • E^C=expected value according to Colby, (E^C=A+B−A×B/100) • =for ternary combinations: (A+B)+C−(A+B)×C/100 • E^A=expected value according to the addition method (E^A=A+B) • Δ=difference (%) between observed value—%—vs. expected value (%) (observed value minus expected value) examination: observed values for (A), (B) and (A)+(B) in scoring: observed value (%) greater >than E^C/E^A:->synergism (+Δ) • observed value (%) equal to =E^C/E^A->additive effect (+−0Δ) • observed value (%) smaller <than E^A/E^C->antagonism (−Δ)

The subject of the next data set is Leptochloa chinensis. Description: Greenhouse trial, efficacy with respect to Leptochloa chinensis. As to conditions: post-emergence. The procedure: as §1, §3, §2, §4
The test system of a further data set is Cyperus esculentus. Description: Greenhouse trial, efficacy with respect to Cyperus esculentus. As to conditions: post-emergence, 1-3-leaf stage, scoring 15 days after application. The procedure:
as §1, §3, §2, §4

Setting [1] is: 100 g of ai/ha, post-emergence, 1-3-leaf stage, scoring 15 days after application (Table 5).
Where [2] appears, read: Dinebra chinensis, 360 h, read-out: Herbicidal activity % Leptochloa chinensis.
Setting [3] is: 50 g of ai/ha, post-emergence, 1-3-leaf stage, scoring 15 days after application (Table 5).

For the compound `CP(=O)(O)CCC(N)C(=O)O` (centres unmarked) [A1.1, glufosinate-ammonium], the “Damage to crop plants (%) rice (GA-tolerant) (≦15-20% acceptable)” value (“Damage to crop plants (%) rice” for short) in the data set on rice (GA-tolerant) (setting [1]) was found to be 10%; in the data set on rice (GA-tolerant) (100 g of ai/ha, post-emergence, 1-3-leaf stage, scoring 15 days after application (Table 6)), 10%; in the data set on rice (GA-tolerant) (100 g of ai/ha, post-emergence, 2-3-leaf stage, scoring 13 days after treatment), 10%. In addition, the “Herbicidal efficacy % Amaranthus retroflexus” value with Amaranthus retroflexus (100 g of ai/ha) amounted to 55%. Also, the inhibition at 100 g/ha with Leptochloa chinensis (setting [2]) came out at 10%. In addition, the “Herbicidal efficacy % Cyperus esculentus” value in the data set on Cyperus esculentus (100 g of ai/ha) is 25%.
As for `COC(=O)c1nc(-c2ccc(Cl)c(OC)c2F)cc(N)c1Cl` [B1.1, methyl 4-amino-3-chloro-6-(4-chloro-2-fluoro-3-methoxyphenyl)pyridine-2-carboxylate], the “Damage to crop plants (%) rice” value in the data set with rice (GA-tolerant) (in vivo) was determined as 0%. For the same compound, the “Herbicidal efficacy % Amaranthus retroflexus” value with Amaranthus retroflexus (20 g of ai/ha) worked out at 90%. Besides, in the data set with Leptochloa chinensis (setting [2]), the inhibition at 20 g/ha stood at 45%. In addition, the “Herbicidal efficacy % Cyperus esculentus” value in the data set on Cyperus esculentus (20 g of ai/ha) stood at 60%.
With `Cc1nn(-c2cc(CC(Cl)C(=O)O)c(Cl)cc2F)c(=O)n1C(F)F` (centres unmarked) [C13, carfentrazone], the “Damage to crop plants (%) rice” value with rice (GA-tolerant) (4 g of ai/ha, post-emergence, 1-3-leaf stage, scoring 15 days after application (Table 5)) worked out at 10%. For the same compound, the “Herbicidal efficacy % Cyperus esculentus” value in the data set on Cyperus esculentus (4 g of ai/ha) was 0%.
`CC1(C)CON(Cc2ccccc2Cl)C1=O` [C17, clomazone]: the “Damage to crop plants (%) rice” value in the data set with rice (GA-tolerant) (setting [1]) was determined as 0%. For the same compound, the “Herbicidal efficacy % Cyperus esculentus” value with Cyperus esculentus (100 g of ai/ha) is recorded as 10%.
Regarding `C[C@@H](Oc1ccc(Oc2ccc(C#N)cc2F)cc1)C(=O)O` [C19, cyhalofop], the “Damage to crop plants (%) rice” value with rice (GA-tolerant) (setting [3]) turned out to be 0%. Moreover, the “Herbicidal efficacy % Cyperus esculentus” value in the data set with Cyperus esculentus (50 g of ai/ha) turned out to be 10%.
As to `O=C(O)COc1ccc(Cl)cc1Cl` [C20, 2,4-D], the “Damage to crop plants (%) rice” value with rice (GA-tolerant) (setting [1]) is 0%. Further, in the data set on Cyperus esculentus (100 g of ai/ha), the “Herbicidal efficacy % Cyperus esculentus” value is given as 20%.
With `CCOc1ccccc1OS(=O)(=O)NC(=O)Nc1nc(OC)cc(OC)n1` [C24, ethoxysulfuron], the “Damage to crop plants (%) rice” value in the data set with rice (GA-tolerant) (in vivo) stood at 0%. The “Herbicidal efficacy % Amaranthus retroflexus” value in the data set on Amaranthus retroflexus (10 g of ai/ha) turned out to be 40%.
As for `CCOC(=O)[C@@H](C)Oc1ccc(Oc2nc3ccc(Cl)cc3o2)cc1` [C29, fenoxaprop-P-ethyl], the “Damage to crop plants (%) rice” value in the data set on rice (GA-tolerant) (10 g of ai/ha, post-emergence, 2-3-leaf stage, scoring 13 days after treatment) is on record as 10%. Besides, the “Herbicidal efficacy % Amaranthus retroflexus” value in the data set with Amaranthus retroflexus (10 g of ai/ha) amounted to 10%.
Regarding `CCN(C(=O)n1nnn(-c2ccccc2Cl)c1=O)C1CCCCC1` [C30, fentrazamide], the “Herbicidal efficacy % Amaranthus retroflexus” value with Amaranthus retroflexus (75 g of ai/ha) amounted to 30%.
Take `COC(=O)c1ccccc1S(=O)(=O)NC(=O)Nc1nc(C)nc(OC)n1` [C43, metsulfuron-methyl]: in the data set with rice (GA-tolerant) (in vivo), the “Damage to crop plants (%) rice” value is 15%. In addition, the “Herbicidal efficacy % Cyperus esculentus” value in the data set with Cyperus esculentus (3 g of ai/ha) is listed as 0%.
As to `CC(C)Oc1cc(-n2nc(C(C)(C)C)oc2=O)c(Cl)cc1Cl` [C50, oxadiazon], the “Damage to crop plants (%) rice” value in the data set on rice (GA-tolerant) (in vivo) was determined as 0%. The “Herbicidal efficacy % Cyperus esculentus” value with Cyperus esculentus (3 g of ai/ha) is given as 10%.
In the case of `CCC(CC)Nc1c([N+](=O)[O-])cc(C)c(C)c1[N+](=O)[O-]` [C53, pendimethalin], the “Damage to crop plants (%) rice” value in the data set on rice (GA-tolerant) (200 g of ai/ha, post-emergence, 2-3-leaf stage, scoring 13 days after treatment) turned out to be 10%. In addition, the “Herbicidal efficacy % Amaranthus retroflexus” value in the data set on Amaranthus retroflexus (200 g of ai/ha) is listed as 50%.
Regarding `CCC(=O)Nc1ccc(Cl)c(Cl)c1` [C55, propanil], in the data set with rice (GA-tolerant) (500 g of ai/ha, post-emergence, 1-3-leaf stage, scoring 15 days after application (Table 5)), the “Damage to crop plants (%) rice” value was 0%. Besides, in the data set on Cyperus esculentus (500 g of ai/ha), the “Herbicidal efficacy % Cyperus esculentus” value was found to be 10%.
`CCOC(=O)c1cnn(C)c1S(=O)(=O)NC(=O)Nc1nc(OC)cc(OC)n1` [C59, pyrazosulfuron-ethyl]: the “Damage to crop plants (%) rice” value in the data set with rice (GA-tolerant) (50 g of ai/ha, post-emergence, 2-3-leaf stage, scoring 13 days after treatment) stood at 10%. The “Herbicidal efficacy % Amaranthus retroflexus” value in the data set with Amaranthus retroflexus (50 g of ai/ha) came out at 60%.
For the compound `CS(=O)(=O)c1ccc(C(=O)C2C(=O)CCCC2=O)c(Cl)c1COCC1CCCO1` (centres unmarked) [C64, tefuryltrione], the “Damage to crop plants (%) rice” value in the data set on rice (GA-tolerant) (setting [3]) is 0%. Moreover, the “Herbicidal efficacy % Cyperus esculentus” value with Cyperus esculentus (50 g of ai/ha) stood at 30%.
Regarding `COc1nc(OC)nc(C(=O)c2cccc(F)c2N(C)S(=O)(=O)C(F)F)n1` [C72, AE 196 triafamone], the “Damage to crop plants (%) rice” value in the data set with rice (GA-tolerant) (6 g of ai/ha, post-emergence, 1-3-leaf stage, scoring 15 days after application (Table 5)) is listed as 0%. Besides, in the data set with Cyperus esculentus (6 g of ai/ha), the “Herbicidal efficacy % Cyperus esculentus” value was found to be 65%.
As to oxadiargyl [C49], the “Herbicidal activity % Leptochloa chinensis” value with Leptochloa chinensis (25 g of ai/ha, 1-3-leaf stage, scoring 15 days after application) is reported as 70%.
